Molecules are shown by their SMILES. pIC50: −log10 of the molar value. The source made the active and inactive calls. The calls are words filed in the database; no cut-off is given here.

Test [1] relates to Penicillium fellutanum. Description: Inhibition of Penicillium fellutanum exo beta-D-galactofuranosidase assessed as 4-nitrophenol release at 0.2 to 1 mM by spectrophotometry.
A short description of test [2]: Inhibition of Penicillium fellutanum exo beta-D-galactofuranosidase assessed as 4-nitrophenol release by spectrophotometry.

Usually pIC50 stands for the negative decadic logarithm of the IC50, by convention in mol/L. With `CO[C@H]1O[C@H](CS[C@@H]2O[C@@H]([C@H](O)CO)[C@H](O)[C@H]2O)[C@H](O)[C@H](O)[C@H]1O`, in test [1], the outcome was Active. Moreover, the pIC50 in test [2] was < 3.00. For `CO[C@H]1O[C@H](CS[C@@H]2O[C@@H](CO)[C@H](O)[C@H]2O)[C@@H](O)[C@H](O)[C@H]1O`, the outcome in test [1] was inactive.

In the case of `CC1(C)O[C@H]2[C@@H](O1)[C@@H](CS[C@@H]1O[C@@H]([C@H](O)CO)[C@H](O)[C@H]1O)O[C@@H]1OC(C)(C)O[C@@H]12`, the result in test [1] was Active. Further, the negative logarithm of the IC50 (pIC50) in test [2] is < 3.00. In the case of `O=C1O[C@@H]([C@H](O)CO)[C@H](O)[C@H]1O`, the negative-log IC50 (pIC50) in test [2] was 4.70.

Source of the values: ChEMBL document CHEMBL1153962, “Thiodisaccharides with galactofuranose or arabinofuranose as terminal units: synthesis and inhibitory activity of an exo beta-D-galactofuranosidase” (Bioorg Med Chem, 2009).
